Experimental data reported in US20230057568A1, “COMPOUNDS FOR TREATING FAMILIAL DYSAUTONOMIA” (PTC THERAPEUTICS, INC., priority 2019, published 2023).

Test system: Elongator complex protein 1 (ELP1, also referred to as IKBKAP)
Assay: IKBKAP-HTRF Assay
Type: cell-based, human
Conditions: FD patient-derived fibroblasts GM04589, 48 hours incubation; for EC2x for IKBKAP protein expression (concentration producing two times the amount of IKBKAP protein vs DMSO vehicle control): 7-point concentration curve; for MFI (maximum fold increase in IKBKAP protein abundance relative to the vehicle control): HTRF
Experimental: The assay is used for the quantitative determination of Elongator complex protein 1 (ELP1, also referred to as IKBKAP) concentration in cell lysates using the HTRF® (Homogeneous Time-Resolved Fluorescence) technology. IKBKAP is detected in a sandwich HTRF assay by use of an anti-IKAP antibody labeled with a donor and an anti-IKAP antibody labeled with an acceptor.
Cells were thawed and incubated in DMEM-10% FBS for 72 hours. Cells were trypsinized, counted, and re-suspended to a concentration of 50,000 cells/mL in DMEM-10% FBS. A 199 μL, aliquot of the cell suspensions were plated at 10,000 cells per well in a 96 well microtiter plate and incubated for 3 to 5 hours. […] Test compounds were serially diluted 3.16-fold in 100% DMSO to generate a 7-point concentration curve. A 1 μL aliquot of 200× compound solution was transferred to cell-containing wells, and cells were incubated for 48 hours in a cell culture incubator (37° C., 5% CO2, 100% relative humidity). Triplicate samples were set up for each compound concentration. After 48 hours, the supernatant was removed from the cells and 50 μL of the 1× LB4 lysis buffer, containing protease inhibitors, was added to the cells and incubated with shaking at room temperature for 1 hour. A 36 μL aliquot of this lysate was subsequently transferred to the 384-well plate containing 4 μL of the antibody solution (1:50 dilution of anti IKAP d2 and anti-IKAP K(9+8) in detection buffer). The 384-well plate was then centrifuged for 1 minute to bring the solutions to the bottom of the plate and incubated overnight at 4° C. Fluorescence for each well of the plate at 665 nm and 620 nm was measured was on the EnVision plate reader (Perkin Elmer). The AF for each sample is calculated by: […]
wherein Signal is the normalized fluorescence for each sample well and Blank is the average normalized average fluorescence for the Blank control wells.
The maximum fold increase (MFI) in IKBKAP protein abundance for compounds of Formula (I) or a form thereof relative to the vehicle control are provided in Table 1. MFI was calculated by dividing the AF value for each sample well by the sample AF for the vehicle control wells.
The EC2× for IKBKAP protein expression obtained from the 7-point concentration curve generated for each test compound according to the protocol in Biological Example 1 are also provided in Table 1. The term “EC2× for IKBKAP protein expression” is defined as the concentration of test compound that is effective in producing two times the amount of IKBKAP protein in a FD patient cell compared to the amount produced from the DMSO vehicle control.

Cc1c(C[C@H](C)N)sc2c(NCc3ccccc3F)nc(Cl)nc12 [Cpd 44, 6-[(2S)-2-aminopropyl]-2-chloro-N-[(2-fluorophenyl)methyl]-7-methylthieno[3,2-d]pyrimidin-4-amine]
EC2x for IKBKAP protein expression (concentration producing two times the amount of IKBKAP protein vs DMSO vehicle control): ***** (<0.005 μM)
MFI (maximum fold increase in IKBKAP protein abundance relative to the vehicle control): ***** (>4.9)

Cc1c(C[C@H](C)N)sc2c(NCc3ccncc3)nc(Cl)nc12 [Cpd 45, 6-[(2S)-2-aminopropyl]-2-chloro-7-methyl-N-[(pyridin-4-yl)methyl]thieno[3,2-d]pyrimidin-4-amine]
EC2x for IKBKAP protein expression (concentration producing two times the amount of IKBKAP protein vs DMSO vehicle control): ***** (<0.005 μM)
MFI (maximum fold increase in IKBKAP protein abundance relative to the vehicle control): ***** (>4.9)

C[C@H](N)c1sc2c(NCc3ccco3)nc(Cl)nc2c1Br [Cpd 46, 6-[(1S)-1-aminoethyl]-7-bromo-2-chloro-N-[(furan-2-yl)methyl]thieno[3,2-d]pyrimidin-4-amine]
EC2x for IKBKAP protein expression (concentration producing two times the amount of IKBKAP protein vs DMSO vehicle control): * (EC2×>1 μM)
MFI (maximum fold increase in IKBKAP protein abundance relative to the vehicle control): * (MFI<1.9)

Cc1c([C@H](C)N)sc2c(NCc3ccco3)nc(Cl)nc12 [Cpd 47, 6-[(1S)-1-aminoethyl]-2-chloro-N-[(furan-2-yl)methyl]-7-methylthieno[3,2-d]pyrimidin-4-amine]
EC2x for IKBKAP protein expression (concentration producing two times the amount of IKBKAP protein vs DMSO vehicle control): *** (between >0.02 μM and ≤0.5 μM)
MFI (maximum fold increase in IKBKAP protein abundance relative to the vehicle control): *** (between >2.9 and <3.9)

CC[C@H](N)c1sc2c(NCc3ccco3)nc(Cl)nc2c1C [Cpd 48, 6-[(1S)-1-aminopropyl]-2-chloro-N-[(furan-2-yl)methyl]-7-methylthieno[3,2-d]pyrimidin-4-amine]
EC2x for IKBKAP protein expression (concentration producing two times the amount of IKBKAP protein vs DMSO vehicle control): *** (between >0.02 μM and ≤0.5 μM)
MFI (maximum fold increase in IKBKAP protein abundance relative to the vehicle control): ** (between >1.9 and <2.9)

CC[C@@H](N)c1sc2c(NCc3ccco3)nc(Cl)nc2c1C [Cpd 49, 6-[(1R)-1-aminopropyl]-2-chloro-N-[(furan-2-yl)methyl]-7-methylthieno[3,2-d]pyrimidin-4-amine]
EC2x for IKBKAP protein expression (concentration producing two times the amount of IKBKAP protein vs DMSO vehicle control): * (EC2×>1 μM)
MFI (maximum fold increase in IKBKAP protein abundance relative to the vehicle control): * (MFI<1.9)

Cc1c(C[C@@H](N)CCF)sc2c(NCc3ccco3)nc(Cl)nc12 [Cpd 51, 6-[(2S)-2-amino-4-fluorobutyl]-2-chloro-N-[(furan-2-yl)methyl]-7-methylthieno[3,2-d]pyrimidin-4-amine]
EC2x for IKBKAP protein expression (concentration producing two times the amount of IKBKAP protein vs DMSO vehicle control): ***** (<0.005 μM)
MFI (maximum fold increase in IKBKAP protein abundance relative to the vehicle control): ***** (>4.9)

Cc1c(C[C@@H]2CCOC(=O)N2)sc2c(NCc3ccco3)nc(Cl)nc12 [Cpd 52, (4S)-4-[(2-chloro-4-{[(furan-2-yl)methyl]amino}-7-methylthieno[3,2-d]pyrimidin-6-yl)methyl]-1,3-oxazinan-2-one]
EC2x for IKBKAP protein expression (concentration producing two times the amount of IKBKAP protein vs DMSO vehicle control): * (EC2×>1 μM)
MFI (maximum fold increase in IKBKAP protein abundance relative to the vehicle control): ** (between >1.9 and <2.9)

CC[C@H](N)Cc1sc2c(NCc3ccncc3F)nc(Cl)nc2c1C [Cpd 53, 6-[(2S)-2-aminobutyl]-2-chloro-N-[(3-fluoropyridin-4-yl)methyl]-7-methylthieno[3,2-d]pyrimidin-4-amine]
EC2x for IKBKAP protein expression (concentration producing two times the amount of IKBKAP protein vs DMSO vehicle control): ***** (<0.005 μM)
MFI (maximum fold increase in IKBKAP protein abundance relative to the vehicle control): ***** (>4.9)

CC[C@H](N)Cc1sc2c(NCc3nccs3)nc(Cl)nc2c1C [Cpd 54, 6-[(2S)-2-aminobutyl]-2-chloro-7-methyl-N-[(1,3-thiazol-2-yl)methyl]thieno[3,2-d]pyrimidin-4-amine]
EC2x for IKBKAP protein expression (concentration producing two times the amount of IKBKAP protein vs DMSO vehicle control): ***** (<0.005 μM)
MFI (maximum fold increase in IKBKAP protein abundance relative to the vehicle control): ***** (>4.9)

Cc1c(C[C@H](C)N)sc2c(NCc3ncccn3)nc(Cl)nc12 [Cpd 55, 6-[(2S)-2-aminopropyl]-2-chloro-7-methyl-N-[(pyrimidin-2-yl)methyl]thieno[3,2-d]pyrimidin-4-amine]
EC2x for IKBKAP protein expression (concentration producing two times the amount of IKBKAP protein vs DMSO vehicle control): *** (between >0.02 μM and ≤0.5 μM)
MFI (maximum fold increase in IKBKAP protein abundance relative to the vehicle control): *** (between >2.9 and <3.9)

Cc1c(C[C@@H](N)CO)sc2c(NCc3cccs3)nc(Cl)nc12 [Cpd 56, (2R)-2-amino-3-(2-chloro-7-methyl-4-{[(thiophen-2-yl)methyl]amino}thieno[3,2-d]pyrimidin-6-yl)propan-l-ol]
EC2x for IKBKAP protein expression (concentration producing two times the amount of IKBKAP protein vs DMSO vehicle control): ***** (<0.005 μM)
MFI (maximum fold increase in IKBKAP protein abundance relative to the vehicle control): ***** (>4.9)

Cc1c(C2CCNC2)sc2c(NCc3ccco3)nc(Cl)nc12 (stereo not drawn) [Cpd 57, 2-chloro-N-[(furan-2-yl)methyl]-7-methyl-6-(pyrrolidin-3-yl)thieno[3,2-d]pyrimidin-4-amine]
EC2x for IKBKAP protein expression (concentration producing two times the amount of IKBKAP protein vs DMSO vehicle control): *** (between >0.02 μM and ≤0.5 μM)
MFI (maximum fold increase in IKBKAP protein abundance relative to the vehicle control): *** (between >2.9 and <3.9)

C[C@H](N)c1sc2c(NCc3ccco3)nc(Cl)nc2c1-c1ccccc1 [Cpd 58, 6-[(1S)-1-aminoethyl]-2-chloro-N-[(furan-2-yl)methyl]-7-phenylthieno[3,2-d]pyrimidin-4-amine]
EC2x for IKBKAP protein expression (concentration producing two times the amount of IKBKAP protein vs DMSO vehicle control): * (EC2×>1 μM)
MFI (maximum fold increase in IKBKAP protein abundance relative to the vehicle control): * (MFI<1.9)

Cc1c(C[C@H](C)N)sc2c(NCc3ncccc3F)nc(Cl)nc12 [Cpd 59, 6-[(2S)-2-aminopropyl]-2-chloro-N-[(3-fluoropyridin-2-yl)methyl]-7-methylthieno[3,2-d]pyrimidin-4-amine]
EC2x for IKBKAP protein expression (concentration producing two times the amount of IKBKAP protein vs DMSO vehicle control): *** (between >0.02 μM and ≤0.5 μM)
MFI (maximum fold increase in IKBKAP protein abundance relative to the vehicle control): **** (between >3.9 and <4.9)

Cc1c(C[C@H](C)N)sc2c(NCc3cccnc3F)nc(Cl)nc12 [Cpd 60, 6-[(2S)-2-aminopropyl]-2-chloro-N-[(2-fluoropyridin-3-yl)methyl]-7-methylthieno[3,2-d]pyrimidin-4-amine]
EC2x for IKBKAP protein expression (concentration producing two times the amount of IKBKAP protein vs DMSO vehicle control): *** (between >0.02 μM and ≤0.5 μM)
MFI (maximum fold increase in IKBKAP protein abundance relative to the vehicle control): *** (between >2.9 and <3.9)

C[C@H](N)c1sc2c(NCc3ccco3)nc(-c3ccccc3)nc2c1-c1ccccc1 [Cpd 61, 6-[(1S)-1-aminoethyl]-N-[(furan-2-yl)methyl]-2,7-diphenylthieno[3,2-d]pyrimidin-4-amine]
EC2x for IKBKAP protein expression (concentration producing two times the amount of IKBKAP protein vs DMSO vehicle control): * (EC2×>1 μM)
MFI (maximum fold increase in IKBKAP protein abundance relative to the vehicle control): * (MFI<1.9)

CC[C@H](N)Cc1sc2c(NCc3ccns3)nc(Cl)nc2c1C [Cpd 62, 6-[(2S)-2-aminobutyl]-2-chloro-7-methyl-N-[(1,2-thiazol-5-yl)methyl]thieno[3,2-d]pyrimidin-4-amine]
EC2x for IKBKAP protein expression (concentration producing two times the amount of IKBKAP protein vs DMSO vehicle control): **** (between >0.005 μM and ≤0.02 μM)
MFI (maximum fold increase in IKBKAP protein abundance relative to the vehicle control): ***** (>4.9)

Cc1c(CCCO)sc2c(NCc3ccco3)nc(Cl)nc12 [Cpd 63, 3-(2-chloro-4-{[(furan-2-yl)methyl]amino}-7-methylthieno[3,2-d]pyrimidin-6-yl)propan-l-ol]
EC2x for IKBKAP protein expression (concentration producing two times the amount of IKBKAP protein vs DMSO vehicle control): * (EC2×>1 μM)
MFI (maximum fold increase in IKBKAP protein abundance relative to the vehicle control): * (MFI<1.9)

Cc1c(C[C@H](C)N)sc2c(NCc3c(F)cncc3F)nc(Cl)nc12 [Cpd 64, 6-[(2S)-2-aminopropyl]-2-chloro-N-[(3,5-difluoropyridin-4-yl)methyl]-7-methylthieno[3,2-d]pyrimidin-4-amine]
EC2x for IKBKAP protein expression (concentration producing two times the amount of IKBKAP protein vs DMSO vehicle control): **** (between >0.005 μM and ≤0.02 μM)
MFI (maximum fold increase in IKBKAP protein abundance relative to the vehicle control): ***** (>4.9)

COc1ccc(-c2c(C[C@H](C)N)sc3c(NCc4ccco4)nc(Cl)nc23)cc1 [Cpd 65, 6-[(2S)-2-aminopropyl]-2-chloro-N-[(furan-2-yl)methyl]-7-(4-methoxyphenyl)thieno[3,2-d]pyrimidin-4-amine]
EC2x for IKBKAP protein expression (concentration producing two times the amount of IKBKAP protein vs DMSO vehicle control): * (EC2×>1 μM)
MFI (maximum fold increase in IKBKAP protein abundance relative to the vehicle control): * (MFI<1.9)
